This note sets out measurements from patent US20240189373A1, “BACTERIOPHAGE COMPOSITIONS FOR TREATING STAP[…]” (priority 2020, published 2024).

Molecules are shown by their SMILES.

The assay concerns S. aureus strains. Description: microbe, parasite or virus in culture. Type of assay: cell-based. On the procedure: Grey boxes indicate lines on graph depicted in FIG. 5B. […] Vancomycin, 16 μg/mL; AP-SA02, 0.1 pg/mL.
FIG. 6A is data showing bacterial growth measured by turbidity (absorbance at 600 nm) in the presence of AP-SA02 and vancomycin in a checkerboard assay. Grey boxes show lines on graph depicted in FIG. 6B. […] Vancomycin, 2 μg/mL.
Standard therapy for subjects with a S. aureus infection includes vancomycin and daptomycin. Since subjects who receive AP-SA02 are likely to be on these therapies, the effect of AP-SA02 on these antibiotics and vice versa was assessed. Using the standard checkerboard assay, the minimum inhibitory concentration of each antimicrobial alone or in combination with each other, was used to calculate whether two antimicrobials are synergistic, antagonistic, or indifferent (Table 3).

On to `CN[C@H](CC(C)C)C(=O)N[C@H]1C(=O)N[C@@H](CC(N)=O)C(=O)N[C@H]2C(=O)N[C@H]3C(=O)N[C@H](C(=O)N[C@H](C(=O)O)c4cc(O)cc(O)c4-c4cc3ccc4O)[C@H](O)c3ccc(c(Cl)c3)Oc3cc2cc(c3O[C@@H]2O[C@H](CO)[C@@H](O)[C@H](O)[C@H]2O[C@H]2C[C@](C)(N)[C@H](O)[C@H](C)O2)Oc2ccc(cc2Cl)[C@H]1O` [vancomycin], for which, under “Staphylococcus aureus”, the MIC is > 16 µg/mL. Where the note is “changed from resistant or intermediate to the sensitive range”, the “breakpoint for vancomycin in the presence of phage” value was in the range of 0.5 to 2 µg/mL.
